The test system of assay [1] is Rattus norvegicus. The assay can be described thus: Antiinflammatory activity in rat assessed as inhibition of carrageenan-induced paw edema at 50 mg/kg, po measured at 360 mins after carrageenan challenge by plethysmographic analysis. Format: functional. Particulars: 6 h.
In assay [2] the test system is Rattus norvegicus. The assay can be described thus: Antiinflammatory activity in rat assessed as inhibition of carrageenan-induced paw edema at 50 mg/kg, po measured at 180 mins after carrageenan challenge by plethysmographic analysis. Particulars: 3 h. Format: functional. Background: Carrageenan injected into the paw causes an acute inflammation.
Assay [3] relates to Rattus norvegicus. In words: Antiinflammatory activity in rat assessed as inhibition of carrageenan-induced paw edema at 50 mg/kg, po measured at 270 mins after carrageenan challenge by plethysmographic analysis. In kind it is functional. Particulars: 4.5 h.
The test system of assay [4] is Rattus norvegicus. The assay can be described thus: Antiinflammatory activity in rat assessed as inhibition of carrageenan-induced paw edema at 50 mg/kg, po measured at 90 mins after carrageenan challenge by plethysmographic analysis. Format: functional. To be noted: 1.5 h.
For assay [5], the species on record is Ovis aries. The assay can be described thus: Selectivity ratio of ovine COX1 to ovine COX2 at 20 uM.
Assay [6] addresses T1, Prostaglandin G/H synthase 1 (Ovis aries) (UniProt P05979).
T1 sequence (whole entry): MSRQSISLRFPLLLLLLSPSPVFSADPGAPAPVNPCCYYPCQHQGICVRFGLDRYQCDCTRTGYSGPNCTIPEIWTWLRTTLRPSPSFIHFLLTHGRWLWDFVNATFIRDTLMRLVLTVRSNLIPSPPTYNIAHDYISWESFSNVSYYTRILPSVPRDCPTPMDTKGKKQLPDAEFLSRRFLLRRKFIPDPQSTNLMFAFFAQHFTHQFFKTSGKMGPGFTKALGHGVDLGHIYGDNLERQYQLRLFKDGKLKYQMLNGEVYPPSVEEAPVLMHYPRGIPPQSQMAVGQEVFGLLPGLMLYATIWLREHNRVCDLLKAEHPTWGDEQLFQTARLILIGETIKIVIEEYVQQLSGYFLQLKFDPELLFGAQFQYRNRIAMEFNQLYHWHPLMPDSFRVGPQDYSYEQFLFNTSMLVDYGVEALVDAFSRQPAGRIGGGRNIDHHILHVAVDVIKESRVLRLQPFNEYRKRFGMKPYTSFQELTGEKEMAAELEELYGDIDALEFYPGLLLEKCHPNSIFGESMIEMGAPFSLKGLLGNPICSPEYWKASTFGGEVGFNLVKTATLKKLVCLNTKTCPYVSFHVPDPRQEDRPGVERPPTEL
In words: Inhibition of ovine COX1 peroxidase activity assessed as TMPD oxidation at 20 uM by colorimetric analysis.

The structures appear in SMILES notation. Activity calls are given as the source filed them. The rule behind the calls is not given here.

One may read the inhibition in vivo as the change of the read-out against control, counted positive when it falls. Usually inhibition stands for the share of the control response that was lost under treatment.

With `CSc1ccc(C2Nc3ccccc3C(=O)N2c2ccccc2F)cc1` (configuration not stated), the inhibition in vivo at 50 mg/kg was 41% in assay [1], 37% in assay [2], 39% in assay [3] and 33% in assay [4].

For the compound `CS(=O)(=O)c1ccc(C2Nc3ccccc3C(=O)N2c2ccccc2F)cc1` (configuration not stated), the inhibition in vivo at 50 mg/kg in assay [1] turned out to be 44%; in assay [2], 39%; in assay [3] it was 42%; in assay [4], 36%. In addition, the Selectivity ratio in assay [5] was 0.278. Also, the inhibition in assay [6] stood at 15%.

Take `COc1ccc(N2C(=O)c3ccccc3NC2c2ccc(SC)cc2)cc1` (configuration not stated): the inhibition in vivo at 50 mg/kg turned out to be 40% in assay [1], 35% in assay [2], 38% in assay [3] and 33% in assay [4].

Turning to `COc1ccc(N2C(=O)c3ccccc3NC2c2ccc(S(C)(=O)=O)cc2)cc1` (configuration not stated), the inhibition in vivo at 50 mg/kg in assay [1] was 49%; in assay [2], 43%; in assay [3], 47%; in assay [4] it was 39%. The Selectivity ratio in assay [5] amounted to 0.577. For the same compound, the inhibition in assay [6] stood at 41%.

`CSc1ccc(C2Nc3ccccc3C(=O)N2c2ccc(C)cc2)cc1` (configuration not stated): the inhibition in vivo at 50 mg/kg came out at 39% in assay [1], 34% in assay [2], 38% in assay [3] and 30% in assay [4].

Regarding `CS(=O)(=O)c1ccc(C2Nc3ccccc3C(=O)N2c2ccc(Cl)cc2)cc1` (configuration not stated), the inhibition in vivo at 50 mg/kg in assay [1] was determined as 51%; in assay [2], 42%; in assay [3] it was 46%; in assay [4], 37%. In assay [5], the Selectivity ratio is greater than 0.001. Besides, the inhibition result in assay [6] is “inactive”.

With `CSc1ccc(C2Nc3ccccc3C(=O)N2c2ccc(F)cc2)cc1` (configuration not stated), the inhibition in vivo at 50 mg/kg in assay [1] turned out to be 44%; in assay [2], 39%; in assay [3], 42%; in assay [4] it was 32%.

`CS(=O)(=O)c1ccc(C2Nc3ccccc3C(=O)N2c2ccccc2)cc1` (configuration not stated): the inhibition in vivo at 50 mg/kg in assay [1] was determined as 40%; in assay [2], 35%; in assay [3] it was 38%; in assay [4], 31%. For the same compound, the Selectivity ratio in assay [5] came out at 0.742. Also, the inhibition in assay [6] was 49%.

On to `CSc1ccc(C2Nc3ccccc3C(=O)N2c2ccc(Cl)cc2)cc1` (configuration not stated), for which the inhibition in vivo at 50 mg/kg in assay [1] was determined as 47%; in assay [2] it was 41%; in assay [3] it was 46%; in assay [4], 38%. In addition, the Selectivity ratio in assay [5] amounted to 0.055. Besides, in assay [6], the inhibition worked out at 5%.

In the case of `CS(=O)(=O)c1ccc(C2Nc3ccccc3C(=O)N2c2ccc(F)cc2)cc1` (configuration not stated), the inhibition in vivo at 50 mg/kg in assay [1] is 48%; in assay [2], 43%; in assay [3], 45%; in assay [4], 38%. The Selectivity ratio in assay [5] is greater than 0.001. Besides, in assay [6], the inhibition result was “inactive”.

Turning to `Cc1ccc(N2C(=O)c3ccccc3NC2c2ccc(S(C)(=O)=O)cc2)cc1` (configuration not stated), the inhibition in vivo at 50 mg/kg in assay [1] is 40%; in assay [2], 35%; in assay [3], 39%; in assay [4], 34%. Also, in assay [5], the Selectivity ratio was greater than 0.01. Further, the inhibition result in assay [6] is “inactive”.

On to `CSc1ccc(C2Nc3ccccc3C(=O)N2c2ccccc2)cc1` (configuration not stated), for which the inhibition in vivo at 50 mg/kg in assay [1] was 39%; in assay [2], 34%; in assay [3], 37%; in assay [4], 30%.

Values taken from ChEMBL document CHEMBL2203087, “Analogue-based design, synthesis and docking of non-steroidal anti-inflammatory agents. Part 2: methyl sulfanyl/methyl sulfonyl substituted 2,3-diaryl-2,3-dihydro-1H-quinazolin-4-ones” (Bioorg Med Chem, 2012).
